Laboratory results: ChEMBL document CHEMBL5303573, “Mapping human microbiome drug metabolism by gut bacteria and their genes” (Nature, 2019)

Assays:
[1] = akkermansia muciniphila, 12 h, 2 µM
Description: The drug is tested on Akkermansia muciniphila strain: ATCC BAA-835 for biotransformation. The drug concentrations were measured before and after a 12-h incubation by liquid-chromatography-coupled mass spectrometry (LC–MS)

[2] = The drug is tested on Clostridium symbiosum strain: ATCC14940 for biotransformation. The drug concentrations were measured before and after a 12-h incubation by liquid-chromatography-coupled mass spectrometry (LC–MS); conditions: 2 µM
[3] = The drug is tested on Bacteroides fragilis strain: ATCC43859 for biotransformation. The drug concentrations were measured before and after a 12-h incubation by liquid-chromatography-coupled mass spectrometry (LC–MS); conditions: 2 µM
[4] = The drug is tested on Bacteroides uniformis strain: ATCC8492 for biotransformation. The drug concentrations were measured before and after a 12-h incubation by liquid-chromatography-coupled mass spectrometry (LC–MS); conditions: 2 µM
[5] = bacteroides fragilis, 12 h, 2 µM
Description: The drug is tested on Bacteroides fragilis strain: 3397 (T10) for biotransformation. The drug concentrations were measured before and after a 12-h incubation by liquid-chromatography-coupled mass spectrometry (LC–MS)

[6] = The drug is tested on Blautia luti strain: DSM14534 for biotransformation. The drug concentrations were measured before and after a 12-h incubation by liquid-chromatography-coupled mass spectrometry (LC–MS); assay type: ADME; parameters: dose 2 uM, timepoint 0 vs 12 hours; conditions: 2 µM
[7] = bacteroides stercoris, 12 h, 2 µM
Description: The drug is tested on Bacteroides stercoris strain: ATCC43183 for biotransformation. The drug concentrations were measured before and after a 12-h incubation by liquid-chromatography-coupled mass spectrometry (LC–MS)

[8] = The drug is tested on Bacteroides pectinophilus strain: ATCC43243 for biotransformation. The drug concentrations were measured before and after a 12-h incubation by liquid-chromatography-coupled mass spectrometry (LC–MS); conditions: 2 µM
[9] = limosilactobacillus reuteri cf48-3a, 12 h, 2 µM
Description: The drug is tested on Lactobacillus reuteri CF48-3A strain: BEI HM-102 for biotransformation. The drug concentrations were measured before and after a 12-h incubation by liquid-chromatography-coupled mass spectrometry (LC–MS)

[10] = The drug is tested on Parabacteroides merdae strain: ATCC43184 for biotransformation. The drug concentrations were measured before and after a 12-h incubation by liquid-chromatography-coupled mass spectrometry (LC–MS); conditions: 2 µM
[11] = The drug is tested on Eubacterium hallii strain: DSM3353 for biotransformation. The drug concentrations were measured before and after a 12-h incubation by liquid-chromatography-coupled mass spectrometry (LC–MS); conditions: anaerobutyricum hallii, 2 µM
[12] = roseburia intestinalis, 12 h, 2 µM
Description: The drug is tested on Roseburia intestinalis strain: L1-82 for biotransformation. The drug concentrations were measured before and after a 12-h incubation by liquid-chromatography-coupled mass spectrometry (LC–MS)

[13] = The drug is tested on Anaerococcus hydrogenalis strain: DSM7454 for biotransformation. The drug concentrations were measured before and after a 12-h incubation by liquid-chromatography-coupled mass spectrometry (LC–MS); conditions: 2 µM
[14] = The drug is tested on Subdoligranulum variabile strain: DSM15176 for biotransformation. The drug concentrations were measured before and after a 12-h incubation by liquid-chromatography-coupled mass spectrometry (LC–MS); conditions: 2 µM
[15] = The drug is tested on Bacteroides coprophilus strain: DSM18228 for biotransformation. The drug concentrations were measured before and after a 12-h incubation by liquid-chromatography-coupled mass spectrometry (LC–MS); conditions: 2 µM
[16] = The drug is tested on Collinsella intestinalis strain: DSM13280 for biotransformation. The drug concentrations were measured before and after a 12-h incubation by liquid-chromatography-coupled mass spectrometry (LC–MS); conditions: 2 µM
[17] = The drug is tested on Clostridium scindens strain: ATCC35704 for biotransformation. The drug concentrations were measured before and after a 12-h incubation by liquid-chromatography-coupled mass spectrometry (LC–MS); conditions: 2 µM
[18] = anaerostipes sp., 12 h, 2 µM
Description: The drug is tested on Anaerostipes sp. strain: fecal isolate for biotransformation. The drug concentrations were measured before and after a 12-h incubation by liquid-chromatography-coupled mass spectrometry (LC–MS)

[19] = The drug is tested on Alistipes indistinctus strain: DSM22520 for biotransformation. The drug concentrations were measured before and after a 12-h incubation by liquid-chromatography-coupled mass spectrometry (LC–MS); conditions: 2 µM
[20] = bacteroides thetaiotaomicron, 12 h, 2 µM
Description: The drug is tested on Bacteroides thetaiotaomicron strain: 7330 for biotransformation. The drug concentrations were measured before and after a 12-h incubation by liquid-chromatography-coupled mass spectrometry (LC–MS)

Row | SMILES | Bacterial Biotransformation [1] | Bacterial Biotransformation [2] | Bacterial Biotransformation [3] | Bacterial Biotransformation [4] | Bacterial Biotransformation [5] | Bacterial Biotransformation [6] | Bacterial Biotransformation [7] | Bacterial Biotransformation [8] | Bacterial Biotransformation [9] | Bacterial Biotransformation [10] | Bacterial Biotransformation [11] | Bacterial Biotransformation [12] | Bacterial Biotransformation [13] | Bacterial Biotransformation [14] | Bacterial Biotransformation [15] | Bacterial Biotransformation [16] | Bacterial Biotransformation [17] | Bacterial Biotransformation [18] | Bacterial Biotransformation [19] | Bacterial Biotransformation [20]
1 | COc1ccc(/C=C/C(=O)Nc2ccccc2C(=O)O)cc1OC | Compound NOT metabolized | Compound NOT metabolized | Compound NOT metabolized | Compound NOT metabolized | Compound NOT metabolized | Compound NOT metabolized | Compound NOT metabolized | Compound NOT metabolized | Compound NOT metabolized | Compound NOT metabolized | Compound NOT metabolized | Compound NOT metabolized | Compound metabolized | Compound NOT metabolized | Compound NOT metabolized | Compound NOT metabolized | Compound NOT metabolized | Compound NOT metabolized | – | –
2 | CN(C)C(=O)C(CCN1CCC(O)(c2ccc(Cl)cc2)CC1)(c1ccccc1)c1ccccc1 [LOPERAMIDE] | – | Compound NOT metabolized | – | Compound metabolized | Compound metabolized | Compound NOT metabolized | Compound metabolized | Compound NOT metabolized | Compound NOT metabolized | – | Compound NOT metabolized | Compound metabolized | Compound NOT metabolized | Compound NOT metabolized | Compound metabolized | – | Compound NOT metabolized | Compound NOT metabolized | Compound metabolized | –
3 | OC(c1cc(C(F)(F)F)nc2c(C(F)(F)F)cccc12)C1CCCCN1 (stereo not given) [MEFLOQUINE] | – | Compound NOT metabolized | Compound NOT metabolized | Compound NOT metabolized | Compound NOT metabolized | Compound NOT metabolized | Compound NOT metabolized | Compound NOT metabolized | Compound NOT metabolized | Compound NOT metabolized | Compound NOT metabolized | Compound metabolized | – | Compound NOT metabolized | Compound NOT metabolized | Compound NOT metabolized | Compound NOT metabolized | Compound NOT metabolized | Compound NOT metabolized | Compound NOT metabolized
4 | COc1c2occc2cc2ccc(=O)oc12 [METHOXSALEN] | – | Compound metabolized | Compound metabolized | Compound metabolized | – | – | – | Compound NOT metabolized | Compound NOT metabolized | – | Compound metabolized | Compound metabolized | Compound NOT metabolized | Compound NOT metabolized | – | – | Compound NOT metabolized | Compound metabolized | Compound NOT metabolized | –
5 | COC(=O)C(c1ccccc1)C1CCCCN1 (stereo not given) [METHYLPHENIDATE] | Compound NOT metabolized | – | Compound NOT metabolized | Compound NOT metabolized | Compound NOT metabolized | – | Compound NOT metabolized | Compound NOT metabolized | – | – | Compound NOT metabolized | – | – | Compound NOT metabolized | – | Compound NOT metabolized | – | – | Compound NOT metabolized | Compound NOT metabolized
6 | CC(C)(C)NC[C@H](O)COc1ccccc1C1CCCC1.CC(C)(C)NC[C@H](O)COc1ccccc1C1CCCC1.O=S(=O)(O)O [PENBUTOLOL SULFATE] | – | Compound NOT metabolized | – | Compound metabolized | – | Compound NOT metabolized | Compound NOT metabolized | – | Compound NOT metabolized | Compound NOT metabolized | Compound NOT metabolized | Compound NOT metabolized | Compound NOT metabolized | Compound NOT metabolized | – | Compound NOT metabolized | Compound NOT metabolized | Compound NOT metabolized | Compound NOT metabolized | Compound NOT metabolized
7 | CCC(=O)NCC[C@@H]1CCc2ccc3c(c21)CCO3 [RAMELTEON] | – | Compound NOT metabolized | Compound metabolized | Compound metabolized | – | Compound NOT metabolized | Compound metabolized | Compound NOT metabolized | Compound NOT metabolized | Compound metabolized | Compound NOT metabolized | – | Compound NOT metabolized | Compound NOT metabolized | Compound NOT metabolized | Compound NOT metabolized | Compound NOT metabolized | Compound NOT metabolized | Compound NOT metabolized | –
8 | O=C(NC(Cc1cc(=O)[nH]c2ccccc12)C(=O)O)c1ccc(Cl)cc1 (stereo not given) [REBAMIPIDE] | Compound NOT metabolized | Compound NOT metabolized | – | Compound metabolized | Compound NOT metabolized | Compound NOT metabolized | Compound NOT metabolized | Compound NOT metabolized | – | Compound NOT metabolized | Compound NOT metabolized | Compound NOT metabolized | Compound NOT metabolized | Compound NOT metabolized | Compound NOT metabolized | Compound NOT metabolized | Compound NOT metabolized | Compound NOT metabolized | Compound NOT metabolized | Compound metabolized
9 | CCN(CC)CCNC(=O)c1cc(S(C)(=O)=O)ccc1OC [TIAPRIDE] | Compound NOT metabolized | Compound NOT metabolized | Compound NOT metabolized | Compound NOT metabolized | – | Compound NOT metabolized | – | Compound NOT metabolized | Compound NOT metabolized | Compound NOT metabolized | Compound NOT metabolized | Compound NOT metabolized | Compound NOT metabolized | Compound NOT metabolized | – | Compound NOT metabolized | Compound NOT metabolized | Compound NOT metabolized | Compound NOT metabolized | Compound NOT metabolized
